Laboratory results from patent publication US20100113473A1, “ARYL AMIDE COMPOUND AS AN ACETYL COENZYME A CARBOXYLASE INHIBITOR” (priority 2008, published 2010).
pIC50, pKd: −log10 of the molar value.

Key:
[1] = biological target: T1, Human ACC2 (amino acids 1685-2458) (Homo sapiens, UniProt O00763); test: ThermoFluor measurement of compound binding to ACC2 CT domain; details: carboxyterminus (CT) domain, pH 7.0, read-out: ACC2 TF Kd
T1 construct: Human ACC2 (amino acids 1685-2458); 6His (N, cleaved yes); FLAG (N, cleaved yes); TEV cleavage site (N, cleaved yes); made in house; host or cells: Sf9 insect cells (baculovirus)
Method: (§1) The 6His.FLAG.TEV Human ACC2 (amino acids 1685-2458) (Egea Biosciences, San Diego, Calif.) and 6His.FLAG. TEV. Human ACC1 (amino acids 1603-2383) (Egea Biosciences, San Diego, Calif.) genes were synthesized and subcloned into the pENTR11 vector. Transfection-grade DNA was purified using the QIAwell® Kit from Qiagen. The LR reaction was performed overnight and then transfected into Sf9 cells using a BaculoDirect® Baculovirus Expression System (Invitrogen). The P0 virus was collected 4 days post transfection and used for another round of virus amplification. The resulting P1 virus and cells were collected 3 days post-infection. […]
(§2) On-column cleavage of the histidine tag was performed by injecting 96 ug of TEV S219V protease/mg (of ACC2 CT. The product was incubated at 4° C. for 20 hours. The cleaved ACC2 was eluted in buffer A and loaded directly onto a HiLoad® 16/60 Superdex 200 column (GE Healthcare), preequilibrated with 25 mM Tris Buffer (at pH 8.0, 200 mM NaCl, 5% Glycerol, 5 mM DTT). Fractions containing ACC2 CT, assayed by SDS-PAGE, were pooled. For cocrystallization, the compound was added in a 1:2 molar ratio of protein:compound and incubated overnight at 4° C. The complex was concentrated to a final protein concentration of 7 mg/mL using an 30 kDa cut-off Ultrafree® membrane (Millipore, Billerica, Mass.) and was then ready for crystallization. […]

[2] = biological target: T2, Human ACC1 (amino acids 1603-2383) (Homo sapiens, UniProt Q13085); test: ThermoFluor measurement of compound binding to ACC1 CT domain; details: carboxyterminus (CT) domain, pH 7.0, read-out: ACC1 TF Kd
T2 construct: Human ACC1 (amino acids 1603-2383); 6His (N); FLAG (N); TEV cleavage site (N); made in house; host or cells: Sf9 insect cells (baculovirus)
Method: as §1, §2

[3] = system: ApoB secretion from HepG2 cells; test: ApoB secretion from HepG2 cells; type: cell-based; details: Homo sapiens, 24 hours, ApoB in medium by ELISA
Method: HepG2 cells (American Type Culture Collection: Catalog No. #HB-8065) are maintained in Growth Media consisting of DMEM with 4.5 g/L glucose (Cellgro: Catalog No. #10-013-CV), supplemented with 10% fetal bovine serum (FBS) (Cellgro: Catalog No. #35-011-CV) and 100 U/mL each penicillin and streptomycin (Cellgro: Catalog No. #30-002-Cl). For the assay, cells are plated @ ˜10,000 cells/well in white, clear-bottom, 96-well plates (Costar: Catalog No. #3610) and incubated in a humidified 5% CO2 atmosphere at 37° C. The next day, Growth Media is replaced with RPMI 1640 without glucose (Cellgro: Catalog No. #10-043-CV), supplemented with 10% charcoal/dextran treated FBS (Hyclone: Catalog No. #SH30068.02) and 100 U/mL each penicillin and streptomycin (starvation media). The cells are maintained overnight in a humidified 5% CO2 atmosphere at 37° C. […] Twenty-four hours later, the growth medium is collected and assessed for ApoB content. […]
The samples are removed and the plate is washed again 3× with 200 μL PBST, then 100 μL of 1/10,000 HRP-conjugated, affinity-purified polyclonal sheep anti-human ApoB detection antibody (BioDesign International Product No. # K90086P) is added to each well and the plate is incubated for one hour at 37° C. […] The plate is read for one second in an Orion Microplate Luminometer®. […]

T1 sequence (O00763 1685-2458): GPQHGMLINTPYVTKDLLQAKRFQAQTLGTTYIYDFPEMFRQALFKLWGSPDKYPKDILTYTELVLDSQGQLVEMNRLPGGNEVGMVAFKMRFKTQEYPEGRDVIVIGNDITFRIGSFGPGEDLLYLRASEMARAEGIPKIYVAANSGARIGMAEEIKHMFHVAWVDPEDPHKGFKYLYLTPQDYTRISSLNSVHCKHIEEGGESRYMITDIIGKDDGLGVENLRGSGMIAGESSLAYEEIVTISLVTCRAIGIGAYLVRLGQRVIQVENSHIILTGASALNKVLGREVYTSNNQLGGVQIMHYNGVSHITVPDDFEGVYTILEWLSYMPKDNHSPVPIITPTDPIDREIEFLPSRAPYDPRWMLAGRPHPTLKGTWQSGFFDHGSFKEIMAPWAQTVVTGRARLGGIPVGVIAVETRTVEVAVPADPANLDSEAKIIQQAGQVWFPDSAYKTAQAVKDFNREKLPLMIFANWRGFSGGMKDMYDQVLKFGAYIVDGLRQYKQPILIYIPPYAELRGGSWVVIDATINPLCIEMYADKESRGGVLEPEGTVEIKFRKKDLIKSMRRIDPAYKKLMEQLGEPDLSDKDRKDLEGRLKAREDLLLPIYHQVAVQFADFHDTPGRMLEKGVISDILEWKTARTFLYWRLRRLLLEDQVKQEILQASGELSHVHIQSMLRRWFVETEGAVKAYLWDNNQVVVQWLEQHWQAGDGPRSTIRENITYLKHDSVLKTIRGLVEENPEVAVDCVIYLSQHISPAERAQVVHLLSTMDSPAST

pKd [1]: 6.40
pKd [2]: 6.01
pIC50 [3]: 5.10
SMILES: Cc1ccc2nc(-c3ccncc3)cc(C(=O)N3CCN(Cc4ccc5c(c4)OCCO5)CC3)c2c1 [Cpd 1, [4-(2,3-Dihydro-benzo[1,4]dioxin-6-ylmethyl)-piperazin-1-yl]-(6-methyl-2-pyridin-4-yl-quinolin-4-yl)methanone]
